Test results: ChEMBL document CHEMBL1201862, “PubChem BioAssay data set” (2004)
Calls of active or inactive are those of the source.

What was measured:
[1] = system: INS1; assay: protection of INS-1E cells from cytokine death, dose response, ATP luminescence, dry powder (AID 488844); format: functional, cell-based; conditions: Rattus norvegicus
[2] = inhibitors of cytokine-induced nitrite release, dose response, cell-based, Griess absorbance, INS-1E, dry powder, set 3 (AID 488870); format: functional; conditions: Rattus norvegicus
[3] = system: INS1; assay: inhibitors of cytokine-induced nitrite release, dose response, cell-based, Griess absorbance, INS-1E, dry powder, set 2 (AID 488868); format: functional; conditions: Rattus norvegicus
[4] = system: INS1; assay: protection from cytokine-induced mitochondrial depolarization, dose response, cell-based, INS-1E, JC-1 fluorescence ratio, dry powder (AID 488931); format: functional; conditions: Rattus norvegicus
[5] = target: T1, Endoribonuclease toxin MazF (Escherichia coli K-12, UniProt P0AE70); assay: MazF toxin RNase activators, dose response, biochemical, fluorescence, single-stranded RNA substrate, uHTS hits (AID 588481); format: functional
T1 sequence (P0AE70 whole entry): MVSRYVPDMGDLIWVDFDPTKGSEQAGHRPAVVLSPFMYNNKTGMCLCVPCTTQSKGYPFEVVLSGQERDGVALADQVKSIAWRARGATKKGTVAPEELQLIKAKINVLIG

[6] = target: T1, Endoribonuclease toxin MazF; assay: fluorescent RNA oligo signal without MazF, dose response, counter-screen for MazEF activator project, biochemical, fluorescence, single-stranded RNase substrate (AID 588502); format: functional
[7] = system: Vero; assay: Vero E6 cell cytotoxicity, dose response, cytotoxicity control (AID 540298); format: functional; conditions: Chlorocebus sabaeus
[8] = system: MDCK; assay: MDCK cell cytotoxicity, dose response, cytotoxicity control (AID 540296); format: functional; conditions: Canis lupus familiaris
[9] = system: MDCK; assay: antiviral activity against H1N1 influenza, dose response, cell-based, strain KY136 (AID 540257); format: functional; conditions: Canis lupus familiaris
[10] = target: DNA damage-inducible transcript 3 protein (Mus musculus, UniProt P35639); format: functional, Cricetulus griseus
Sequence of DNA damage-inducible transcript 3 protein (P35639 whole entry, the tested form may be a part): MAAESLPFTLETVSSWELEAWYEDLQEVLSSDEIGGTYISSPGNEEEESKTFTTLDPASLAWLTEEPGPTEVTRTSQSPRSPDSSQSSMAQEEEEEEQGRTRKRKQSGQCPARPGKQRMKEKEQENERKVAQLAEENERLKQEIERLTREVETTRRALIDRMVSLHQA

[11] = system: CHO; assay: cytotoxicity in TLR9-MyD88 CHO cells, dose response, cytotoxicity control for TLR9-MyD88 binding inhibitor project, cell-based, luminescence (AID 588339); format: functional, hamster; conditions: Cricetulus griseus;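 further: CHO cells stably coexpressing TLR9 and MyD88 fusions from primary screen; compound exposure lasted 48 hours before viability readout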
[12] = target: T2, High affinity choline transporter 1 (Homo sapiens, UniProt Q9GZV3); assay: CHT inhibitors, dose response, cell-based, 5-point CRC, membrane potential dye (AID 504840); format: functional
T2 sequence (Q9GZV3 whole entry): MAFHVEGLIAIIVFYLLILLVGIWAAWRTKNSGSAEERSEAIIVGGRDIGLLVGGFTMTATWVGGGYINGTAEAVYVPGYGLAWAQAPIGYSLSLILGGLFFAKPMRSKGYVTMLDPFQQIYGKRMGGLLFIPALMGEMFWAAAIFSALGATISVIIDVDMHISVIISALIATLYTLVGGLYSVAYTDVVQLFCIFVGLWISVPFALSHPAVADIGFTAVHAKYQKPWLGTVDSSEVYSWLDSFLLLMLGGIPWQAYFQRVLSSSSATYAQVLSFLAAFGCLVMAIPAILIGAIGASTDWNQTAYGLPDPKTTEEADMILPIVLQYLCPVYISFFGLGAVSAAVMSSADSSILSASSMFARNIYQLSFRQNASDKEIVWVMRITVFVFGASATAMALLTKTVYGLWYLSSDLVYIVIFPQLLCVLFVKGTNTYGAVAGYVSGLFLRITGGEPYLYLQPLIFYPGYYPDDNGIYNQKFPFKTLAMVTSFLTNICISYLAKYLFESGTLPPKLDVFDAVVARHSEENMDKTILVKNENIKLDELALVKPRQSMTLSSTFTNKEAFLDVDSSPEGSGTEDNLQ

[13] = target: Beta Lactamase (Pseudomonas aeruginosa, UniProt Q932Y6); assay: beta-lactamase reporter inhibitor potency, dose response, artefact control for TLR9-MyD88 binding inhibitor project, BLA reporter cells, FRET fluorescence (AID 588341); format: cell-based;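 further: cell based assay in CHO-K1 cells stably expressing beta-lactamase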
Sequence of Beta Lactamase (Q932Y6 whole entry): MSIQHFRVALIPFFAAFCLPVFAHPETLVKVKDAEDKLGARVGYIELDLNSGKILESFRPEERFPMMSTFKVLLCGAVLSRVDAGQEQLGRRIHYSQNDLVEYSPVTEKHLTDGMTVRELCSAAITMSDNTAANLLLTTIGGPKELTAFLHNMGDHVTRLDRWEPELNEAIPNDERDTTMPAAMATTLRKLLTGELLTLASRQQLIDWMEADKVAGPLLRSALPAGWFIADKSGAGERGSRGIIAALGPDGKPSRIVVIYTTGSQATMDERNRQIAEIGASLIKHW

[14] = Shn3 3'UTR reporter inhibitors, dose response, cell-based, Clone20 osteoblasts, firefly luciferase, cherry-picked (AID 624132); format: functional;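 further: firefly luciferase luminescence from reporter carrying the Shn3 3'UTR in osteoblasts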
[15] = HepG2 cell cytotoxicity, dose response, cytotoxicity control for Shn3 inhibitor project, CellTiter-Glo, cherry-picked (AID 624134); format: functional, cell-based
[16] = control 3'UTR Renilla luciferase suppression, dose response, counter-screen for Shn3 inhibitor project, cell-based, Clone20-Shn3RL, cherry-picked (AID 624133); format: functional
[17] = system: BJ; assay: cytotoxicity toward BJ-TERT fibroblasts, dose response, cell-based, RAS-independent, luminescence (AID 1933); format: functional; conditions: Homo sapiens
[18] = system: Vero; assay: host cell cytotoxicity of antiviral hits, dose response, cytotoxicity control for West Nile virus antiviral project, secondary assay (AID 1650); format: functional; conditions: Chlorocebus sabaeus
[19] = system: BJ; assay: cells; format: functional, cell-based; conditions: Homo sapiens
[20] = system: BJ; assay: cytotoxicity toward BJ-TERT-LT-ST fibroblasts, dose response, cell-based, RAS-independent, luminescence (AID 1935); format: functional; conditions: Homo sapiens;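 further: BJ fibroblasts immortalized with TERT plus LT and ST oncogenes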
[21] = cytotoxicity toward DRD oncogenic fibroblasts, dose response, cell-based, non-viral oncogenic, luminescence (AID 1934); format: functional; conditions: Homo sapiens
[22] = system: BJ; assay: cytotoxicity toward Ras-transformed BJeLR fibroblasts, dose response, cell-based, alamar blue fluorescence, cherrypicked samples (AID 2631); format: functional; conditions: Homo sapiens;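 further: confirmatory dose-response assay in RAS-dependent BJ fibroblasts engineered with TERT, LT and ST, with cytotoxicity read by fluorescence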
[23] = target: Dual specificity tyrosine-phosphorylation-regulated kinase 1A (Rattus norvegicus, UniProt Q63470); format: biochemical, Homo sapiens
[24] = MDA-MB-231 cell growth inhibition, dose response, cytotoxicity control for RAD54 inhibitor project, CellTiter-Glo luminescence, cherry-pick (AID 651692); format: functional, cell-based
[25] = target: DNA repair and recombination protein RAD54-like (Homo sapiens, UniProt Q92698); assay: inhibitors of human RAD54 branch migration, confirmation, biochemical, fluorescence, cherry-picked samples, dose series (AID 651657); format: functional
Sequence of DNA repair and recombination protein RAD54-like (Q92698 whole entry): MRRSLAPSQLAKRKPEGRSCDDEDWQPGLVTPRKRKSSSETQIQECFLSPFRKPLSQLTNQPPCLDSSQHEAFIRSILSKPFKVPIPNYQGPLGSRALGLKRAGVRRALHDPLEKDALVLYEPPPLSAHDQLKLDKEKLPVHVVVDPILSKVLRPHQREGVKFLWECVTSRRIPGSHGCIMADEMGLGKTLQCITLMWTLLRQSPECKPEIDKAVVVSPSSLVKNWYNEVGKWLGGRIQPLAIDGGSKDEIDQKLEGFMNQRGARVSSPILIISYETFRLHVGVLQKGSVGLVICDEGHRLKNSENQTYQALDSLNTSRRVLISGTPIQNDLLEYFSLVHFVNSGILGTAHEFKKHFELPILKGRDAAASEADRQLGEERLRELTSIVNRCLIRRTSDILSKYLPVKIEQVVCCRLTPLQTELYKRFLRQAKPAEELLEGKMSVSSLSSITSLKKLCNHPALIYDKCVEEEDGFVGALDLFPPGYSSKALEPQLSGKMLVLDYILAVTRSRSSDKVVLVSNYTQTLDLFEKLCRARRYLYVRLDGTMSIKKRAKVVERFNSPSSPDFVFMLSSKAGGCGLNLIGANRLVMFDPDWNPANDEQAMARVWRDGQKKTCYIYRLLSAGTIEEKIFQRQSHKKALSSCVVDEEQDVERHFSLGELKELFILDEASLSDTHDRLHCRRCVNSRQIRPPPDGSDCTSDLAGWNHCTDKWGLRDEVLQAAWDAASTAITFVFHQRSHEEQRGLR

[26] = target: DNA repair protein RAD52 homolog (Homo sapiens, UniProt P43351); format: functional, biochemical
Sequence of DNA repair protein RAD52 homolog (P43351 whole entry): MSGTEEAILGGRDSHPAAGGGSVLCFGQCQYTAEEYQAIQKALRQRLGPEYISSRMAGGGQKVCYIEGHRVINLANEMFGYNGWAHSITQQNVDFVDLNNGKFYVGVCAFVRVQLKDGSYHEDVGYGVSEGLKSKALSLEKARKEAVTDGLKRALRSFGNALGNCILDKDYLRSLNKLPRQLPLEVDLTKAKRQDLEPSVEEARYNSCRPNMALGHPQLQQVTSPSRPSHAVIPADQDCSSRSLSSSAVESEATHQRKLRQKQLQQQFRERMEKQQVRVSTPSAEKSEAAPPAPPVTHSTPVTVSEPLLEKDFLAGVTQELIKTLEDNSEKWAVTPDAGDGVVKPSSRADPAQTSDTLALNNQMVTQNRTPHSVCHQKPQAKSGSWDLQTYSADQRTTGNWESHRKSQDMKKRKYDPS

COc1cccc(S(=O)(=O)N(C)C[C@@H]2Oc3c(NC(=O)Nc4cccc5ccccc45)cccc3C(=O)N([C@@H](C)CO)C[C@H]2C)c1
AC50 [1]: 77 µM (active)
AC50 [2]: 29 µM (active)
AC50 [3]: 28.7 µM (active)
AC50 [4]: 98.9 µM (active)

Cc1sc(NC(=O)CSc2nnc(N)[nH]2)c(C#N)c1C
EC50 [5]: > 99 µM (inactive)
EC50 [6]: > 99 µM (inactive)

Cc1ccccc1NC(=O)/C(=C/c1ccco1)c1ccccc1
CC50 [7]: > 40 µM (active)
CC50 [8]: > 40 µM (active)
IC50 [9]: 15.4 µM (active)

CCOC(=O)c1nc(S(C)(=O)=O)ncc1Cl
Absolute IC50 (CHOP) [10]: 10 µM
IC50 [11]: 5.62 µM (active)
IC50 [12]: 19.1 µM (active)
IC50 [13]: 22.4 µM (inactive)
AC50 [14]: 6.37 µM (active)
AC50 [15]: 35.4 µM (active)
AC50 [16]: 20.5 µM (active)

Nc1nc(N)c2c(ccc3[nH]ccc32)n1
EC50 [17]: 112 µM (active)
CC50 [18]: 5.14 µM (active)
EC50 [19]: 4.8 µM (inconclusive)
EC50 [20]: > 38 µM (not active)
EC50 [21]: 14.4 µM (inconclusive)
EC50 [22]: > 133 µM (inactive)
AC50 [23]: 5.51 µM (active)
AC50 [24]: 4.07 µM (active)
AC50 [25]: 38.6 µM (active)
AC50 [26]: 12 µM (active)
